In EP1242382B1, “TRICYCLIC PROTEIN KINASE INHIBITORS” (Wyeth, priority 1999, dated 2001) one finds IC50 data, which are given here for 1 compound.

Assay [1] concerns Human adenocarcinoma cell line LoVo. The experiment in a line: Cell based screen for inhibitors of Raf kinase, quantitative assay. As to conditions: 96 h, four days incubation. As for the experimental part:
(§1) • Cell Lines: Human adenocarcinoma cell line LoVo which is known to be growth inhibited by low nM concentrations of a reference standard inhibitor of Ras and human adenocarcinoma cell line CaCo-2, which is known to be growth resistant to the same reference compound. • Cell Media : RPMI 1640 with 10% Fetal Bovine Serum supplemented with L-glutamine and Pennicilin/Streptomycin. • Compounds: Supplied usually as a 10 mM stock in 100% DMSO. • Normal Saline: 150 mM NaCl • Trichloroacetic Acid (TCA): 50% (w/v) in water • Sulforhodamine B (SRB): 0.4% (w/v) in 1% Acetic Acid • Tris Base: 10 mM in water
(§2) Cells are plated at 2000 cells per well for cell line LoVo and 1500 cells for cell line CaCo-2 in 96 well plates. Cells are plated in media (200 µl) and allowed to adhere overnight at 37°C. At 24 hours post plating, compounds are added directly at a volume of 0.5 µl. For the qualitative screen (compounds screened at 25 µM) compound is added directly to cells. For the quantitative screen, compound is first diluted in DMSO to generate concentrations of compound or reference standard of: 1, 5, 10 and 25 µM. It is advisable to make the dilutions in an identical 96 well plate so that compounds can be added using a multichannel micropipettor set at 0.5 µl. The cells are then incubated for four days after which the media is removed using a 12 well manifold by first tipping the plate forward at a 45 degree angle and then inserting the manifold in an upright orientation to prevent the tips of the manifold from disturbing cells at the bottom of the plate. 200 µl of normal saline is then added to each well using an 8 well multichannel pipettor, followed by the careful addition of 50 µl of 50% TCA. The plates are then incubated for 2 hours at 4°C, after which the supernatant is removed using the same technique as above and the plated washed twice with 200 µl water. The plates are then air dried and 50 µl of SRB stock solution is carefully added so that the entire bottom of each well is covered. This again can be used using an 8 well multichannel pipettor. The SRB is incubated with fixed cells for 15 minutes at room temperature after which the SRB is removed with the manifold as described above and the plates washed twice with 350 µl of 1% acetic acid per well each time. The plates are then air dried after which the bound SRB is released from protein by the addition of 200 µl of Tris base. Resolubilizing the SRB is aided by placing the plates on a rotator for 15-30 minutes. The absorbance of each well is determined at 550 or 562 nm using a microtiter plate reader.
(§3) Each compound or dilution thereof is performed in triplicate. Outliers are identified by visual inspection of the data. Each plate should have a "0" control (vehicle only).
(§4) Quantitative Assay: A standard curve is constructed by plotting the concentration of compound against the average absorbance calculated at that concentration. […] Multiple entries for a given compound indicate that it is tested multiple times.

Assay [2] has as its system human adenocarcinoma cell line CaCo-2. Described as above. As to conditions: Caco-2, 96 h, four days incubation. As for the experimental part: as §1, §2, §3, §4

Each structure is given as a SMILES string.

As a reminder, the IC50 is the concentration that inhibits the measured activity by half. Higher therefore signals weaker potency. `COc1cc2cc3c(Nc4ccc(OCc5ccccc5)c(Cl)c4)c(C#N)cnc3cc2cc1OCCN1CCOCC1` [Example 218, 4-(4-Benzyloxy-3-chlorophenylamino)-7-methoxy-8-(2-morpholin-4-yl-ethoxy)benzo[g]quinoline-3-carbonitrile]: the IC50 was 0.43 µM in assay [1] and 6 µM in assay [2].
